Results reported in patent US8513270B2, “Substituted heterocycles as Janus kinase inhibitors” (Incyte Corporation, priority 2006, dated 2013).
Structures can show the parent of a compound that is named as a salt.

What was measured:
[1] = molecular target: T1, human JAK3 (a.a. 781-1124) (Homo sapiens, UniProt P52333); experiment: In vitro JAK kinase assay (HTRF), JAK3; format: biochemical; details: JAK3, 3 μM ATP; read-out: EXAMPLE A JAK2-JAK3 HTRF-2 IC50
T1 construct: JAK3 (a.a. 781-1124); His tag (N); made in house; host or cells: insect cells (baculovirus)
T1 sequence (P52333 781-1124): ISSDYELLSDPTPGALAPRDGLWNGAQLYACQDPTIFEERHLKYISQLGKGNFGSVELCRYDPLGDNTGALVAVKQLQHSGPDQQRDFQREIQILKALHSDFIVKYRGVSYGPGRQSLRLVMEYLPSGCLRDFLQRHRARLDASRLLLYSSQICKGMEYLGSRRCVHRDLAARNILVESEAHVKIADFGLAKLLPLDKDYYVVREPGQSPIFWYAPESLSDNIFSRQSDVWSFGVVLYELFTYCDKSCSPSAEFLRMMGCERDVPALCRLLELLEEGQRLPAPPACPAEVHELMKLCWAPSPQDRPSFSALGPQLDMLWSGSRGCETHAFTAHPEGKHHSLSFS
Method: (§1) Compounds herein were tested for inhibitory activity of JAK targets according to the following in vitro assay described in Park et al., Analytical Biochemistry 1999, 269, 94-104. The catalytic domains of human JAK1 (a.a. 837-1142), JAK2 (a.a. 828-1132) and JAK3 (a.a. 781-1124) with an N-terminal His tag were expressed using baculovirus in insect cells and purified. The catalytic activity of JAK1, JAK2 or JAK3 was assayed by measuring the phosphorylation of a biotinylated peptide. The phosphorylated peptide was detected by homogenous time resolved fluorescence (HTRF). IC50s of compounds were measured for each kinase in the reactions that contain the enzyme, ATP and 500 nM peptide in 50 mM Tris (pH 7.8) buffer with 100 mM NaCl, 5 mM DTT, and 0.1 mg/mL (0.01%) BSA. The ATP concentration in the reactions was 90 μM for JAK1, 30 μM for JAK2 and 3 μM for JAK3. Reactions were carried out at room temperature for 1 hr and then stopped with 20 μL 45 mM EDTA, 300 nM SA-APC, 6 nM Eu—Py20 in assay buffer (Perkin Elmer, Boston, Mass.). Binding to the Europium labeled antibody took place for 40 minutes and HTRF signal was measured on a Fusion plate reader (Perkin Elmer, Boston, Mass.).

[2] = molecular target: T2, human JAK2 (a.a. 828-1132) (Homo sapiens, UniProt O60674); experiment: In vitro JAK kinase assay (HTRF), JAK2; format: biochemical; details: JAK2, 30 μM ATP; read-out: EXAMPLE A HTS-JAK2 HTRF-2 IC50
T2 construct: JAK2 (a.a. 828-1132); His tag (N); made in house; host or cells: insect cells (baculovirus)
T2 sequence (O60674 828-1132): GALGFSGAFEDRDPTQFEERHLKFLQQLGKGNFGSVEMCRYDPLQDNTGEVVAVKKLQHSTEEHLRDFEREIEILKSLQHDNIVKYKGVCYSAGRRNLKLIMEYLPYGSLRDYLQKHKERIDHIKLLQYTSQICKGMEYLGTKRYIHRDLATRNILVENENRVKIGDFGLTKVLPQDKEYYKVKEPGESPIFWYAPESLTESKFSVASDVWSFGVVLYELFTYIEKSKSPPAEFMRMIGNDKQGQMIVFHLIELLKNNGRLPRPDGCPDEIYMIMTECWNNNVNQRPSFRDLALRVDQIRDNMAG
Method: as §1

[3] = molecular target: T3, human JAK1 (a.a. 837-1142) (Homo sapiens, UniProt P23458); experiment: In vitro JAK kinase assay (HTRF), JAK1; format: biochemical; details: JAK1, 90 μM ATP; read-out: EXAMPLE A JAK2-JAK1 HTRF-2 IC50
T3 construct: human JAK1 (a.a. 837-1142); His tag (N); made in house; host or cells: insect cells (baculovirus)
T3 sequence (P23458 849-1154): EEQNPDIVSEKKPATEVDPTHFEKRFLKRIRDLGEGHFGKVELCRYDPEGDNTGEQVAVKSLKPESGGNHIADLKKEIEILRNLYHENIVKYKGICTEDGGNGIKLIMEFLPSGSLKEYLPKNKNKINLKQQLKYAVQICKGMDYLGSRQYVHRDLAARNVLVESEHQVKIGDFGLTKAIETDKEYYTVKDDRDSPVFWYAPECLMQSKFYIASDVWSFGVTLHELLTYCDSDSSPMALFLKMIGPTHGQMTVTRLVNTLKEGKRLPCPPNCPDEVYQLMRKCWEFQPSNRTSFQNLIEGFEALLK
Method: as §1

TF1-BCRABL1 cells = TF1-BCRABL1 cells (Homo sapiens, UniProt P00519); experiment: ABL1 cell based assay: viability of ABL1-dependent cell line (CellTiter-Glo); details: 72 hours, cell viability; read-out: EXAMPLE F JAK2-TF1-BCRABL1 IC50
Sequence of TF1-BCRABL1 cells (P00519 whole entry, change not shown): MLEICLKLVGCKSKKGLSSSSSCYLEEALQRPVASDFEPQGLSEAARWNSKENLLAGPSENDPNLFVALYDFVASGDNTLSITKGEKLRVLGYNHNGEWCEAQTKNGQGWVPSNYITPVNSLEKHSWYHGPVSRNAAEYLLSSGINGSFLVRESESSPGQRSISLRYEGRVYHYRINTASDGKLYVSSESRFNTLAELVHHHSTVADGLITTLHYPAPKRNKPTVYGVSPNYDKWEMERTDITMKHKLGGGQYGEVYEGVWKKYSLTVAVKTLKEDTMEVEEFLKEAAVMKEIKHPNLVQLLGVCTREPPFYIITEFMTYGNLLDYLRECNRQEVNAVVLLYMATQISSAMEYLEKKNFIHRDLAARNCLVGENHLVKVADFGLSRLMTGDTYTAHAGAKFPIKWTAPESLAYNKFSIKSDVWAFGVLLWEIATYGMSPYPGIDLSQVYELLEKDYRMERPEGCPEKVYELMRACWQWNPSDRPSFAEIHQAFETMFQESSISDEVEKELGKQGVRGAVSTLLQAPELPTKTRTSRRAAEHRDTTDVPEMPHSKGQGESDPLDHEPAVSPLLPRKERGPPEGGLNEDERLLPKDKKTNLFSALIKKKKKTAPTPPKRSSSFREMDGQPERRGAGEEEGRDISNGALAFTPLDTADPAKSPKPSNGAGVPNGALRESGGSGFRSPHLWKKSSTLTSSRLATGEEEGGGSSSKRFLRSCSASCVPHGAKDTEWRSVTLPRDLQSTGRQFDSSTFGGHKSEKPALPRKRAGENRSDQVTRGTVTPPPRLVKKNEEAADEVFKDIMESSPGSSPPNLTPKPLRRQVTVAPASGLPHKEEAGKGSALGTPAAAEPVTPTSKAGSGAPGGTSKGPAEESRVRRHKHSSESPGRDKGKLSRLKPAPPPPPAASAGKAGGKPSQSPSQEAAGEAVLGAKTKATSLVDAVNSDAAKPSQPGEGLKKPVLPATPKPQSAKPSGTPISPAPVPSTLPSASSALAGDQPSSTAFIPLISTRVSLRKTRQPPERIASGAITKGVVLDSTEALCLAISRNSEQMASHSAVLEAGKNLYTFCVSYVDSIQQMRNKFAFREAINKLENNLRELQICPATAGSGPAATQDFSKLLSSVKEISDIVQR
Method: One or more compounds herein were tested for inhibitory activity of ABL1 targets according to at least one of the following cellular assays.
Cancer cell lines dependent on ABL1 kinase activity for proliferation and/or survival were plated at 3000 cells per well (96 well plate format) in RPMI 1640, and 10% FBS. Compounds were added to the cells in DMSO/media (final concentration 0.2% DMSO) and incubated for 72 hours at 37° C., 5% CO2. The effect of compound on cell viability was assessed using the CellTiter-Glo Luminescent Cell Viability Assay (Promega) followed by TopCount (Perkin Elmer, Boston, Mass.) quantitation. ABL1-dependent cell lines can include those naturally dependent on ABL1 activity or those engineered to be dependent on ABL1 activity (e.g. BaF/3 cells). The latter can be generated using wild-type ABL1 or mutant ABL1 (such as T315I ABL1) so that the activity of compounds can be assessed against different variants of the ABL1 kinase. Potential off-target effects of compounds were measured in parallel using a non-ABL1 driven cell line with the same assay readout. […] All experiments were performed in duplicate or greater.

Cc1ccc(NC(=O)c2cc(-n3ccnc3)cc(C(F)(F)F)c2)cc1-c1ccc2c(c1)[nH]c1ncncc12 [Example 23, 3-(1H-imidazol-1-yl)-N-[4-methyl-3-(9H-pyrimido[4,5-b]-indol-7-yl)phenyl]-5-(trifluoromethyl)benzamide]
≤ 500 nM: IC50 [1] | IC50 [2] | IC50 [3] | GI50 (TF1-BCRABL1 cells)

Cc1ccc(NC(=O)c2cc(-n3cncn3)cc(C(F)(F)F)c2)cc1-c1ccc2c(c1)[nH]c1ncncc12 [Example 24, N-[4-methyl-3-(9H-pyrimido-[4,5-b]indol-7-yl)phenyl]-3-(1H-1,2,4-triazol-1-yl)-5-(trifluoromethyl)benzamide]
≤ 500 nM: IC50 [1] | IC50 [2] | IC50 [3] | GI50 (TF1-BCRABL1 cells)

Cc1ccc(NC(=O)c2cc(-n3cnc(CN(C)C)c3)cc(C(F)(F)F)c2)cc1-c1ccc2c(c1)[nH]c1ncncc12 [Example 25, 3-{4-[(dimethylamino)methyl]-1H-imidazol-1-yl}-N-[4-methyl-3-(9H-pyrimido[4,5-b]-indol-7-yl)phenyl]-5-(trifluoro-methyl)benzamide]
≤ 500 nM: IC50 [1] | IC50 [2] | IC50 [3] | GI50 (TF1-BCRABL1 cells)

Cc1ccc(NC(=O)c2cc(N3CCOCC3)cc(C(F)(F)F)c2)cc1-c1ccc2c(c1)[nH]c1ncncc12 [Example 27, N-[4-methyl-3-(9H-pyrimido-[4,5-b]indol-7-yl)phenyl]-3-morpholin-4-yl-5-(trifluoromethyl)benzamide]
≤ 500 nM: IC50 [1] | IC50 [2] | IC50 [3] | GI50 (TF1-BCRABL1 cells)

Cc1ccc(NC(=O)c2cc(N3CCC(O)CC3)cc(C(F)(F)F)c2)cc1-c1ccc2c(c1)[nH]c1ncncc12 [Example 29, 3-(4-hydroxypiperidin-1-yl)-N-[4-methyl-3-(9H-pyrimido[4,5-b]indol-7-yl)phenyl]-5-(trifluoromethyl)benzamide]
≤ 500 nM: IC50 [1] | IC50 [2] | IC50 [3] | GI50 (TF1-BCRABL1 cells)

Cc1ccc(NC(=O)c2cc(N3CCCC(O)C3)cc(C(F)(F)F)c2)cc1-c1ccc2c(c1)[nH]c1ncncc12 (stereo not shown) [Example 30, 3-(3-hydroxypiperidin-1-yl)-N-[4-methyl-3-(9H-pyrimido[4,5-b]indol-7-yl)phenyl]-5-(trifluoromethyl)benzamide]
≤ 500 nM: IC50 [1] | IC50 [2] | IC50 [3] | GI50 (TF1-BCRABL1 cells)

Cc1ccc(NC(=O)c2cc(NCCN3CCOCC3)cc(C(F)(F)F)c2)cc1-c1ccc2c(c1)[nH]c1ncncc12 [Example 31, N-[4-methyl-3-(9H-pyrimido-[4,5-b]indol-7-yl)phenyl]-3-[(2-morpholin-4-ylethyl)amino]-5-(trifluoromethyl)benzamide]
≤ 500 nM: IC50 [1] | IC50 [2] | IC50 [3] | GI50 (TF1-BCRABL1 cells)

Cc1ccc(NC(=O)c2cc(N3CCN(CCO)CC3)cc(C(F)(F)F)c2)cc1-c1ccc2c(c1)[nH]c1ncncc12 [Example 32, 3-[4-(2-hydroxyethyl)piperazin-1-yl]-N-[4-methyl-3-(9H-pyrimido[4,5-b]indol-7-yl)-phenyl]-5-(trifluoromethyl)-benzamide]
≤ 500 nM: IC50 [1] | IC50 [2] | IC50 [3] | GI50 (TF1-BCRABL1 cells)

Cc1ccc(NC(=O)c2cc(NCCCN(C)C)cc(C(F)(F)F)c2)cc1-c1ccc2c(c1)[nH]c1ncncc12 [Example 33, 3-{[3-(dimethylamino)propyl]-amino}-N-[4-methyl-3-(9H-pyrimido[4,5-b]indol-7-yl)-phenyl]-5-(trifluoromethyl)-benzamide]
≤ 500 nM: IC50 [1] | IC50 [2] | IC50 [3] | GI50 (TF1-BCRABL1 cells)

Cc1ccc(NC(=O)c2cc(N3CCC(O)C3)cc(C(F)(F)F)c2)cc1-c1ccc2c(c1)[nH]c1ncncc12 (stereo not shown) [Example 34, 3-(3-hydroxypyrrolidin-1-yl)-N-[4-methyl-3-(9H-pyrimido-[4,5-b]indol-7-yl)phenyl]-5-(trifluoromethyl)benzamide]
≤ 500 nM: IC50 [1] | IC50 [2] | IC50 [3] | GI50 (TF1-BCRABL1 cells)

Cc1ccc(NC(=O)c2cc(NCCCn3ccnc3)cc(C(F)(F)F)c2)cc1-c1ccc2c(c1)[nH]c1ncncc12 [Example 35, 3-{[3-(1H-imidazol-1-yl)-propyl]amino}-N-[4-methyl-3-(9H-pyrimido[4,5-b]indol-7-yl)phenyl]-5-(trifluoromethyl)-benzamide]
≤ 500 nM: IC50 [1] | IC50 [2] | IC50 [3] | GI50 (TF1-BCRABL1 cells)

Cc1ccc(NC(=O)c2cc(N(C)C)cc(C(F)(F)F)c2)cc1-c1ccc2c(c1)[nH]c1ncncc12 [Example 36, 3-(dimethylamino)-N-[4-methyl-3-(9H-pyrimido[4,5-b]-indol-7-yl)phenyl]-5-(trifluoromethyl)benzamide]
≤ 500 nM: IC50 [1] | IC50 [2] | IC50 [3] | GI50 (TF1-BCRABL1 cells)

Cc1ccc(NC(=O)c2cc(N3CCC(N(C)C)C3)cc(C(F)(F)F)c2)cc1-c1ccc2c(c1)[nH]c1ncncc12 (stereo not shown) [Example 37, 3-[3-(dimethylamino)-pyrrolidin-1-yl]-N-[4-methyl-3-(9H-pyrimido[4,5-b]indol-7-yl)phenyl]-5-(trifluoromethyl)-benzamide]
≤ 500 nM: IC50 [1] | IC50 [2] | IC50 [3] | GI50 (TF1-BCRABL1 cells)

Cc1ccc(NC(=O)c2cccc(C(F)(F)F)c2)cc1-c1ccc2c(c1)[nH]c1nc(N)ncc12 [Example 67, N-[3-(2-Amino-9H-pyrimido[4,5-b]indol-7-yl)-4-methylphenyl]-3-(trifluoro-methyl)benzamide trifluoroacetate]
≤ 500 nM: IC50 [1] | IC50 [2] | IC50 [3] | GI50 (TF1-BCRABL1 cells)

Cc1ncc(NC(=O)c2cc(F)cc(C(F)(F)F)c2)cc1-c1ccc2c(c1)[nH]c1ncncc12 [Example 71, 3-Fluoro-N-[6-methyl-5-(9H-pyrimido[4,5-b]indol-7-yl)pyridin-3-yl]-5-(trifluoromethyl)benzamide]
≤ 500 nM: IC50 [1] | IC50 [2] | IC50 [3] | GI50 (TF1-BCRABL1 cells)

Cc1ncc(NC(=O)c2cc(-n3ccnc3)cc(C(F)(F)F)c2)cc1-c1ccc2c(c1)[nH]c1ncncc12 [Example 72, 3-(1H-imidazol-1-yl)-N-[6-methyl-5-(9H-pyrimido[4,5-b]indol-7-yl)pyridin-3-yl]-5-(trifluoromethyl)benzamide tris(trifluoroacetate)]
≤ 500 nM: IC50 [1] | IC50 [2] | IC50 [3] | GI50 (TF1-BCRABL1 cells)

Cc1ncc(NC(=O)c2cc(-n3cncn3)cc(C(F)(F)F)c2)cc1-c1ccc2c(c1)[nH]c1ncncc12 [Example 73, N-[6-methyl-5-(9H-pyrimido[4,5-b]indol-7-yl)pyridin-3-yl]-3-(1H-1,2,4-triazol-1-yl)-5-(trifluoromethyl)benzamide bis(trifluoroacetate)]
≤ 500 nM: IC50 [1] | IC50 [2] | IC50 [3] | GI50 (TF1-BCRABL1 cells)

Cc1ncc(NC(=O)c2cc(-n3cnc(C=O)c3)cc(C(F)(F)F)c2)cc1-c1ccc2c(c1)[nH]c1ncncc12 [Example 74, 3-(4-formyl-1H-imidazol-1-yl)-N-[6-methyl-5-(9H-pyrimido[4,5-b]indol-7-yl)pyridin-3-yl]-5-(trifluoromethyl)benzamide bis(trifluoroacetate)]
≤ 500 nM: IC50 [1] | IC50 [2] | IC50 [3] | GI50 (TF1-BCRABL1 cells)

Cc1ncc(NC(=O)c2cc(-n3cnc(CO)c3)cc(C(F)(F)F)c2)cc1-c1ccc2c(c1)[nH]c1ncncc12 [Example 75, 3-[4-(hydroxymethyl)-1H-imidazol-1-yl]-N-[6-methyl-5-(9H-pyrimido[4,5-b]indol-7-yl)pyridin-3-yl]-5-(trifluoromethyl)benzamide tris(trifluoroacetate) (salt)]
≤ 500 nM: IC50 [1] | IC50 [2] | IC50 [3] | GI50 (TF1-BCRABL1 cells)
